This passage reports solubility in methanol and IC50 results from patent US11186533B2, “Chalcone compound and preparation method thereof” (SOUTH CHINA BOTANICAL GARDEN, CHINESE ACADEMY OF SCIENCES, priority 2018, dated 2021).

pIC50: −log10 of the molar value.

The nature of one series: Solubility in methanol. The format is physicochemical.
Series [1] can be described thus: DPPH radical scavenging assay. The conditions noted are these: 0.2 mM DPPH in absolute ethanol, dark, room temperature, 30 minutes, absorbance at 517 nm; read-out: IC50 value against DPPH radicals. As to the method: DPPH is a stable free radical. When a free radical scavenger is present, light absorption of DPPH will be reduced when the single electron is scavenged, which allows to evaluate free radical scavenging ability of the substance and accordingly determine antioxidant ability thereof. The DPPH radical scavenging ability of the compound 2,2′,4,4′-tetrahydroxy-3-(2″-hydroxy-3″-methylbutyl-3″-alkenyl)chalcone was measured through the DPPH radical scavenging assay, so as to evaluate the antioxidant ability of the compound. The assay comprised the following steps:
1,1-Diphenyl-2-picrylhydrazyl (DPPH) was dissolved in absolute ethanol to obtain a solution with a concentration of 0.2 mM. The compound 2,2′,4,4′-tetrahydroxy-3-(2″-hydroxy-3″-methylbutyl-3″-alkenyl)chalcone was dissolved in absolute ethanol. 80 μL of the ethanol solution of 2,2′,4,4′-tetrahydroxy-3-(2″-hydroxy-3″-methylbutyl-3″-alkenyl)chalcone and 160 μL of the 0.2 mM DPPH ethanol solution were mixed and the mixture was placed in dark at room temperature for 30 minutes. Then, light absorbance at 517 nm was measured using a microplate reader (SpectraMax 190, Molecular Devices, USA).

As usually defined, the pIC50 is −log10 of the IC50, conventionally taken in molar units. As for `C=C(C)C(O)Cc1c(O)ccc(C(=O)/C=C/c2ccc(O)cc2O)c1O` (centres unmarked) [compound 1, 2,2′,4,4′-tetrahydroxy-3-(2″-hydroxy-3″-methylbutyl-3″-alkenyl)chalcone], the solubility in methanol entry in “Solubility in methanol” is on record as “easily soluble in methanol”. The pIC50 in series [1] was 4.67.
